Assay results published in ChEMBL document CHEMBL3603790, “2- and 3-Fluoro-3-deazaneplanocins, 2-fluoro-3-deazaaristeromycins, and 3-methyl-3-deazaneplanocin: Synthesis and antiviral properties” (Bioorg Med Chem, 2015).
Activity calls are given as the source filed them. The rule behind the calls is not given here.

Assays:
[1] = system: Vaccinia virus; assay: Antiviral activity against Vaccinia virus infected in HEL cells after 3 days by neutral red dye-based plaque reduction assay; format: functional, organism-based; conditions: Orthopoxvirus vaccinia
[2] = system: Hepatitis B virus; assay: Antiviral activity against HBV infected in human HepG22.2.15 cells after 3 days by neutral red dye-based plaque reduction assay; format: functional, organism-based; conditions: HepG2 2.2.15, 72 h
[3] = Cytotoxicity against human Ava5 cells; format: cell-based
[4] = Inhibition of rabbit erythrocytic AdoHcy hydrolase using AdoHcy as substrate assessed as formation of L-homocysteine preincubated for 5 mins followed by substrate addition measured after 1 hr by thiol quantitation reagent-based assay; set-up: species or system Oryctolagus cuniculus
[5] = Cytotoxicity against monkey MA104 cells; format: cell-based, Macaca mulatta; conditions: rhesus monkey
[6] = system: Yellow fever virus; assay: Antiviral activity against Yellow fever virus infected in African green monkey Vero cells after 3 days by neutral red dye-based plaque reduction assay; format: functional, organism-based; conditions: 72 h
[7] = system: LLC-MK2; assay: Cytotoxicity against monkey LLC-MK2 cells; format: cell-based, Macaca mulatta; conditions: rhesus monkey
[8] = Cytotoxicity against African green monkey CV1 cells; format: cell-based, CV-1; conditions: chlorocebus aethiops
[9] = system: Enterovirus C; assay: Antiviral activity against Poliovirus infected in monkey LLC-MK2 cells after 3 days by neutral red dye-based plaque reduction assay; format: functional, organism-based
[10] = Cytotoxicity against African green monkey Vero E6 cells; format: cell-based; conditions: chlorocebus sabaeus
[11] = system: Human alphaherpesvirus 2; assay: Antiviral activity against Human herpesvirus 2 infected in HEL cells after 3 days by neutral red dye-based plaque reduction assay; format: functional, organism-based
[12] = Selectivity index, ratio of CC50 for human HepG2(2.2.1) cells to IC50 for HBV; format: functional
[13] = system: Dengue virus; assay: Antiviral activity against Dengue virus infected in African green monkey Vero cells after 3 days by neutral red dye-based plaque reduction assay; format: functional, organism-based
[14] = system: HeLa; assay: Cytotoxicity against human HeLa cells; format: cell-based
[15] = Selectivity index, ratio of CC50 for HFF to IC50 for HCMV; format: functional
[16] = system: Hepatitis C virus; assay: Antiviral activity against Hepatitis C virus infected in human Ava5 cells after 3 days by neutral red dye-based plaque reduction assay; format: functional, organism-based; conditions: Hepacivirus hominis
[17] = Selectivity index, ratio of CC50 for African green monkey Vero cells to IC50 for Yellow fever virus; format: functional
[18] = Selectivity index, ratio of CC50 for African green monkey CV1 cells to IC50 for Measles virus; format: functional, CV-1
[19] = Cytotoxicity against African green monkey Vero cells; format: cell-based; conditions: chlorocebus sabaeus, Vero cells
[20] = system: Rift Valley fever virus; assay: Antiviral activity against Rift Valley fever virus infected in African green monkey Vero 76 cells after 3 days by neutral red dye-based plaque reduction assay; format: functional, organism-based; conditions: for IC50: 72 h
[21] = system: HEL; assay: Cytotoxicity against HEL cells; format: cell-based; conditions: human
[22] = system: Measles morbillivirus; assay: Antiviral activity against Measles virus infected in African green monkey CV1 cells after 3 days by neutral red dye-based plaque reduction assay; format: functional, organism-based; conditions: CV-1, 72 h
[23] = system: Respiratory syncytial virus; assay: Antiviral activity against Respiratory syncytial virus infected in monkey MA104 cells after 3 days by neutral red dye-based plaque reduction assay; format: functional, organism-based
[24] = system: MDCK; assay: (§1) Cytotoxicity against MDCK cells; format: cell-based, Canis lupus familiaris; conditions: dog, mdck
[25] = system: Venezuelan equine encephalitis virus; assay: Antiviral activity against Venezuelan equine encephalitis virus infected in African green monkey Vero cells after 3 days by neutral red dye-based plaque reduction assay; format: functional, organism-based
[26] = Cytotoxicity against African green monkey Vero 76 cells; format: cell-based; conditions: chlorocebus sabaeus; for CC50: Vero 76 cells
[27] = Cytotoxicity against HFF; format: cell-based; conditions: human, HFF cells
[28] = system: Respiratory syncytial virus; assay: Antiviral activity against Respiratory syncytial virus infected in human HeLa cells after 3 days by neutral red dye-based plaque reduction assay; format: functional, organism-based
[29] = system: Human alphaherpesvirus 1; assay: Antiviral activity against Human herpesvirus 1 infected in HEL cells after 3 days by neutral red dye-based plaque reduction assay; format: functional, organism-based
[30] = system: SARS-CoV; assay: Antiviral activity against SARS coronavirus infected in African green monkey Vero E6 cells after 3 days by neutral red dye-based plaque reduction assay; format: functional, organism-based; conditions: Severe acute respiratory syndrome-related coronavirus
[31] = Cytotoxicity against human […] cells; format: cell-based
[32] = system: Influenza A virus; assay: Antiviral activity against Influenza A virus H1N1 infected in MDCK cells after 3 days by neutral red dye-based plaque reduction assay; format: functional, organism-based
[33] = system: West Nile virus; assay: Antiviral activity against WNV infected in African green monkey Vero 76 cells after 3 days by neutral red dye-based plaque reduction assay; format: functional, organism-based
[34] = system: Human betaherpesvirus 5; assay: Antiviral activity against HCMV infected in HFF after 3 days by neutral red dye-based plaque reduction assay; format: functional, organism-based; conditions: Human betaherpesvirus 5, 72 h
[35] = system: Tacaribe virus; assay: Antiviral activity against Tacaribe virus infected in African green monkey Vero 76 cells after 3 days by neutral red dye-based plaque reduction assay; format: functional, organism-based; conditions: Mammarenavirus tacaribeense, 72 h
[36] = system: Influenza B virus; assay: Antiviral activity against Influenza B virus infected in MDCK cells after 3 days by neutral red dye-based plaque reduction assay; format: functional, organism-based; conditions: 72 h
[37] = Cytotoxicity against MDCK cells relative to control; format: cell-based, Canis lupus familiaris; conditions: dog
[38] = Cytotoxicity against African green monkey Vero 76 cells relative to control; format: cell-based; conditions: chlorocebus sabaeus
[39] = system: Enterovirus; assay: Antiviral activity against Rhinovirus infected in human HeLa Ohio-1 cells after 3 days by neutral red dye-based plaque reduction assay; format: functional, organism-based
[40] = system: Cowpox virus; assay: Antiviral activity against Cowpox virus infected in HFF after 3 days by neutral red dye-based plaque reduction assay; format: functional, organism-based
[41] = system: Influenza A virus; assay: Antiviral activity against Influenza A virus H3N2 infected in MDCK cells after 3 days by neutral red dye-based plaque reduction assay; format: functional, organism-based
[42] = Selectivity index, ratio of CC50 for African green monkey Vero 76 cells to IC50 for Tacaribe virus; format: functional
[43] = Cytotoxicity against African green monkey Vero cells relative to control; format: cell-based; conditions: chlorocebus sabaeus
[44] = Selectivity index, ratio of CC50 for African green monkey Vero 76 cells to IC50 for Rift Valley fever virus; format: functional
[45] = system: unidentified adenovirus; assay: Antiviral activity against Adenovirus infected in human A549 cells after 3 days by neutral red dye-based plaque reduction assay; format: functional, organism-based
[46] = system: MA104; assay: Antiviral activity against Parainfluenza virus infected in monkey MA104 cells after 3 days by neutral red dye-based plaque reduction assay; format: functional, cell-based; conditions: Paramyxoviridae
[47] = Selectivity index, ratio of CC50 for MDCK cells to IC50 for Influenza A virus H5N1 virus; format: functional
[48] = Selectivity index, ratio of CC50 for African green monkey Vero cells to IC50 for Dengue virus; format: functional
[49] = system: A549; assay: Cytotoxicity against human A549 cells; format: cell-based
[50] = Cytotoxicity against human HeLa Ohio-1 cells; format: cell-based
[51] = as §1; format: cell-based, Canis lupus familiaris; conditions: dog, MDCK cells
[52] = system: Influenza A virus; assay: Antiviral activity against Influenza A virus H5N1 infected in MDCK cells after 3 days by neutral red dye-based plaque reduction assay; format: functional, organism-based; conditions: 72 h
[53] = Selectivity index, ratio of CC50 for MDCK cells to IC50 for Influenza B virus; format: functional

Row | Structure (SMILES) | Activity [1] | IC50 [4] [µM] | Activity [5] | IC50 [6] [µM] | Activity [10] | Activity [14] | Ratio CC50/IC50 [15] | CC50 [19] [µM] | Activity [21] | Activity [23] | Activity [25] | CC50 [27] [µM] | Activity [28] | Activity [30] | Activity [32] | Activity [33] | IC50 [34] [µM] | IC50 [35] [µM] | IC50 [36] [µM] | CC50 [37] [µM] | other results
1 | Nc1nc(F)cc2c1ncn2[C@@H]1C=C(CCO)[C@@H](O)[C@H]1O | inactive | > 10 | Non-toxic | 29 | Non-toxic | Non-toxic | > 300 | > 100 | Non-toxic | inactive | inactive | > 300 | inactive | inactive | inactive | inactive | < 0.1 |  |  |  | IC50 [2]: 0.99 µM; Activity [3]: Non-toxic; Activity [7]: Non-toxic; CC50 [8]: > 100 µM; Activity [9]: inactive; Activity [11]: inactive; Ratio CC50/IC50 [12]: 8; Activity [13]: inactive; Activity [16]: inactive; Ratio CC50/IC50 [17]: >3.4; Ratio CC50/IC50 [18]: >1; Activity [20]: inactive; IC50 [22]: 89.8 µM; Activity [24]: Non-toxic; Activity ([26]; vero 76): Non-toxic; Activity [29]: inactive; CC50 [31]: 7.5 µM
2 | NC(=O)c1ncn([C@@H]2O[C@H](CO)[C@@H](O)[C@H]2O)n1 [RIBAVIRIN] |  |  |  |  |  |  |  |  |  |  |  |  |  |  |  |  |  | 26.7 | 9 | > 100 | CC50 [38]: > 1000 µM; IC50 [20]: 37.3 µM; CC50 [26]: > 1000 µM
3 | Nc1nc2c(ncn2COC(CO)CO)c(=O)[nH]1 [GANCICLOVIR] |  |  |  |  |  |  |  |  |  |  |  | > 100 |  |  |  |  | 3.6 |  |  |  | 
4 | Nc1ncc(F)c2c1ncn2[C@@H]1C=C(CO)[C@@H](O)[C@H]1O | inactive | 0.0068 | Non-toxic | > 224 | Non-toxic | Non-toxic | > 1040 | 224 | Non-toxic | inactive | inactive | > 300 | inactive | inactive | inactive | inactive | 0.3 | < 0.36 | < 0.36 | > 357 | Activity [39]: inactive; Activity [40]: inactive; Activity [41]: inactive; Ratio CC50/IC50 [42]: >317; CC50 [43]: 35.7 µM; CC50 [38]: 114 µM; Ratio CC50/IC50 [44]: 5.6; Activity [45]: inactive; Activity [46]: inactive; IC50 ([13]; 72 h): 7.1 µM; Ratio CC50/IC50 [47]: 34; Ratio CC50/IC50 [48]: 5; Activity [49]: Non-toxic; Activity [50]: Non-toxic; IC50 [20]: 6.4 µM; CC50 [51]: 32.5 µM; CC50 [26]: 36 µM; IC50 [52]: 1 µM; Ratio CC50/IC50 [53]: >1000
